Experimental findings from patent US12528814B2, “Bifunctional degraders of interleukin-1 receptor-associated kinases and therapeutic use thereof” (NURIX THERAPEUTICS, INC., priority 2020, dated 2026) are described below.

In test [1] the target is T1, IRAK4 (Homo sapiens (Human), UniProt Q9NWZ3). As to the kind of experiment: IRAK4 Biochemical HTRF Kinase Assay. To be noted: Table 5; multiple runs; read-out: IRAK4 HTRF biochemical: IC50. The method, boiled down: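 HTRF KinEASE STK S1 format measuring IRAK4 phosphorylation of biotinylated peptide; reaction solution of 5 μM STK-S1, 10 mM ATP, 10 mM MgCl2 added (stock, to 10 μl final), 90 min at ambient temperature, detection 60 min. IC50 from sixteen-point duplicate curves by non-linear regression.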
Target sequence in this assay (Q9NWZ3 whole entry, species assumed): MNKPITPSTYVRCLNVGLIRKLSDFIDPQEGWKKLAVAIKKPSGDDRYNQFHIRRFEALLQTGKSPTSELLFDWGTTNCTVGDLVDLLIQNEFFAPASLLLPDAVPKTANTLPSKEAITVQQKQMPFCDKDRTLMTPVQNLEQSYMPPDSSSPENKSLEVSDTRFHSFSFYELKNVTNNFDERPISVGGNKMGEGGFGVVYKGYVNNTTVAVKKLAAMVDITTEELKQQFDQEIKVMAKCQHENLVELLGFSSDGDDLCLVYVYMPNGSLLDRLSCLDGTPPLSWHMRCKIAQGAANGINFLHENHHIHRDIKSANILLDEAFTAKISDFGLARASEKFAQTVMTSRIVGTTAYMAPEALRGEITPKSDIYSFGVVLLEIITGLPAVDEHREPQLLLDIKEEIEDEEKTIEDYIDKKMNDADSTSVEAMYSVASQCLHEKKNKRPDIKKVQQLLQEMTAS

Test [2] deals with T1, IRAK4. As to the kind of experiment: IRAK4 Degradation HiBiT Assay. Particulars: multiple runs, HiBiT-tagged Jurkat cells, 4 hrs; for Dmax: Jurkat, read-out: Cellular IRAK4 HiBiT: Dmax, Table 5; for DC50: read-out: Cellular IRAK4 HiBiT: DC50, Table 5. In general terms: HiBiT is a short tag that completes a luciferase, so light tracks the accessible tagged protein.
Target sequence in this assay (Q9NWZ3 whole entry): as the sequence (Q9NWZ3 whole entry, species assumed) above
Protocol: Compound dilution series (11-point, 3.16-fold dilutions in DMSO, columns 1-11 and 12-22) at 500× the final required concentrations were prepared in Labcyte LDV 384-well plates (cat. no. LP-0200) using a Labcyte Echo 550 Liquid Handler. The 500× solutions ranged from 5 mM to 0.5 μM (final assay concentration range 10 μM to 0.1 nM). Using the Echo, the 500× solutions were stamped into white, 384-well assay plates (Corning, cat. no. 3570) at 60 nL/well. […] C-terminal HiBiT-tagged Jurkat cells (polyclonal cell line or clone 8D5) were plated at 1×10^6 cells/mL, 30 μL/well (3×10^4 cells/well) in complete RPMI (10% FBS, 1% L-glutamine). Cells were incubated for 4 hrs at 32° C./6% CO2.
Following incubation, 30 uL of complete Nano-Glo HiBiT Lytic Detection Reagent (Nano-Glo HiBiT Lytic Buffer with 1:50 Nano-Glo HiBiT Lytic Substrate and 1:100 LgBiT Protein; Promega cat. no. N3040) was added. Cells were further incubated for 10 min at room temperature (RT). Luminescence units (LU) were read on an EnVision plate reader (Perkin Elmer, 0.1 sec per well). Percent IRAK4 remaining per sample was calculated as follows:
Using Graphpad Prism, % IRAK4 remaining values were plotted as a function of compound concentration.

In general, pIC50 refers to the IC50 on a negative log10 scale, so that one unit is a factor of ten. What is called Dmax is the greatest extent of degradation seen. By DC50 is commonly meant the concentration at which degradation of the target reaches its halfway point.

Each structure is given as a SMILES string. pIC50: −log10 of the molar value.

As to `CNc1cc(-c2ccc3cc(C#N)cnn23)ncc1-c1nnc([C@H]2CC[C@H](N(C)CC3CCN(c4ccc(C(=O)N(C)C5CCC(=O)NC5=O)cc4)CC3)CC2)s1` (stereo partly drawn) [Example 189, 4-(4-((((1r,4r)-4-(5-(6-(3-cyanopyrrolo[1,2-b]pyridazin-7-yl)-4-(methylamino)pyridin-3-yl)-1,3,4-thiadiazol-2-yl)cyclohexyl)(methyl)amino)methyl)piperidin-1-yl)-N-(2,6-dioxopiperidin-3-yl)-N-methylbenzamide], the pIC50 in test [1] was 9.52. In test [2], the Dmax worked out at 62% and the DC50 amounted to 192 nM.

For `CNc1cc(-c2ccc3cc(C#N)cnn23)ncc1-c1nnc([C@H]2C[C@H](NC(=O)CN3CCN(c4ccc5c(c4)C(=O)N(C4CCC(=O)NC4=O)C5=O)CC3)C2)s1` (stereo partly drawn) [Example 190, N-((1r,3r)-3-(5-(6-(3-cyanopyrrolo[1,2-b]pyridazin-7-yl)-4-(methylamino)pyridin-3-yl)-1,3,4-thiadiazol-2-yl)cyclobutyl)-2-(4-(2-(2,6-dioxopiperidin-3-yl)-1,3-dioxoisoindolin-5-yl)piperazin-1-yl)acetamide], the negative-log IC50 (pIC50) in test [1] is 9.00. Further, in test [2], the Dmax was 105% and the DC50 was determined as 7.75 nM.

For the compound `CNc1cc(-c2ccc3cc(C#N)cnn23)ncc1-c1nnc([C@H]2CC[C@H](N(C)C(=O)C[C@H](NC(=O)[C@@H]3C[C@@H](O)CN3C(=O)C(c3cc(C)no3)C(C)C)c3ccc(-c4scnc4C)cc3)CC2)s1` (stereo partly drawn) [Example 191, (2S,4R)—N—((S)-3-(((1r,4S)-4-(5-(6-(3-cyanopyrrolo[1,2-b]pyridazin-7-yl)-4-(methylamino)pyridin-3-yl)-1,3,4-thiadiazol-2-yl)cyclohexyl)(methyl)amino)-1-(4-(4-methylthiazol-5-yl)phenyl)-3-oxopropyl)-4-hydroxy-1-(3-methyl-2-(3-methylisoxazol-5-yl)butanoyl)pyrrolidine-2-carboxamide], the pIC50 in test [1] was 8.82. For the same compound, in test [2], the Dmax worked out at 110% and the DC50 worked out at 48.2 nM.

Turning to `CCN(C(=O)C[C@H](NC(=O)[C@@H]1C[C@@H](O)CN1C(=O)C(c1cc(C)no1)C(C)C)c1ccc(-c2scnc2C)cc1)[C@H]1CC[C@H](c2nnc(-c3cnc(-c4ccc5cc(C#N)cnn45)cc3NC)s2)CC1` (stereo partly drawn) [Example 192, (2S,4R)—N—((S)-3-(((1r,4S)-4-(5-(6-(3-cyanopyrrolo[1,2-b]pyridazin-7-yl)-4-(methylamino)pyridin-3-yl)-1,3,4-thiadiazol-2-yl)cyclohexyl)(ethyl)amino)-1-(4-(4-methylthiazol-5-yl)phenyl)-3-oxopropyl)-4-hydroxy-1-(3-methyl-2-(3-methylisoxazol-5-yl)butanoyl)pyrrolidine-2-carboxamide], the pIC50 in test [1] was 8.85. In test [2], the Dmax was found to be 103% and the DC50 turned out to be 50.6 nM.
